Results: PMC3871185 (ACS medicinal chemistry letters, 2013)
In brackets after ≈: the same amount, converted by molar mass. Entries after “also recorded” stand apart in the source; their conditions may differ.

What was measured:
[1] = test system: Burkholderia thailandensis; details: cited from earlier work
[2] = test system: B. pseudomallei; details: cited from earlier work
[3] = test system: clinical B. pseudomallei isolates; details: cited from earlier work
[4] = test system: hMetAP2; details: cited from earlier work; for IC50: read-out: hMetAP2 IC50
[5] = test system: hMetAP1; details: read-out: hMetAP1 IC50; cited from earlier work
[6] = test system: Burkholderia thailandensis
[7] = target: BpMetAP1 (Burkholderia pseudomallei, UniProt Q63T11)
BpMetAP1, sequence (Q63T11 1-271): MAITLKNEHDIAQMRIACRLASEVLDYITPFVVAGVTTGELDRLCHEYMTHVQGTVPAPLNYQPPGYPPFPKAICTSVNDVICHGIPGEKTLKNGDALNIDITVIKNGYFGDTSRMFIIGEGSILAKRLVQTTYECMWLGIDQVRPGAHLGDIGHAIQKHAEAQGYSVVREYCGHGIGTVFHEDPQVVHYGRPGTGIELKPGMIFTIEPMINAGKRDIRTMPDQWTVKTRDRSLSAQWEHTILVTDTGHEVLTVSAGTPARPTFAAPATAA

[8] = test system: B. pseudomallei 1026b; assay type: cell-based, Burkholderia pseudomallei
[9] = test system: B. pseudomallei strain Bp340; assay type: cell-based, Burkholderia pseudomallei
[10] = test system: Burkholderia thailandensis; assay: microbe, parasite or virus in culture; details: read-out: minimum inhibitory concentration (MIC)

Structure (SMILES)	growth inhibition of B. thailandensis (in words) [6]	BpMetAP1 inhibition potency (in words) [7]	other results
NC[C@H]1O[C@H](O[C@H]2[C@H](O)[C@@H](O[C@H]3O[C@H](CO)[C@@H](O)[C@H](N)[C@H]3O)[C@H](N)C[C@@H]2N)[C@H](O)[C@@H](O)[C@@H]1O [Km, kanamycin]			killing of B. thailandensis [1]: complete killing; killing of B. pseudomallei [2]: complete killing
CC(C)(O/N=C(\C(=O)N[C@@H]1C(=O)N2C(C(=O)[O-])=C(C[n+]3ccccc3)CS[C@H]12)c1csc(N)n1)C(=O)O [ceftazidime]			MIC [3]: 1 to 6 µg/mL
O=S(=O)(O)c1ccc(O)c2ncccc12 [compound 1]			IC50 [4]: > 15 µM; IC50 [5]: > 15 µM
Cc1ccc2cccc(O)c2n1 [compound 2, reference compound]	inhibited cell growth	inactive	IC50 [4]: > 15 µM; IC50 [5]: > 15 µM
Oc1cccc2cccnc12 [compound 3, reference compound]	inhibited cell growth		IC50 [5]: > 15 µM
Oc1c(CN2CCCCC2)cc(Cl)c2cccnc12 [compound 5]		Met-AP inhibition	
Oc1c(CN2CCSCC2)cc(Cl)c2cccnc12 [compound 7]	inhibited cell growth		
O=[N+]([O-])c1ccc(O)c2ncccc12 [compound 9, 5-nitro-8-hydroxyquinoline]	potent growth inhibitors; also recorded: inhibition of cell growth	Met-AP inhibition	activity against human MetAP2 in vitro [4]: nanomolar range; inhibition of B. pseudomallei 1026b [8]: no difference in inhibition compared to Bp340; growth inhibition of B. pseudomallei Bp340 [9]: complete growth inhibition; MIC [10]: ~6 µg/mL (≈ 31.6 µM); IC50 [5]: > 15 µM
O=[N+]([O-])c1cc(CN2CCCCC2)c(O)c2ncccc12 [compound 10]	inactive	decreased potency	
CN(C)Cc1cc([N+](=O)[O-])c2cccnc2c1O [compound 11]	potent growth inhibitors; also recorded: inhibition of cell growth		
O=[N+]([O-])c1cc(CN2CCCC2)c(O)c2ncccc12 [compound 12]	potent growth inhibitors; also recorded: inhibition of cell growth		
O=[N+]([O-])c1cc(CN2CCOCC2)c(O)c2ncccc12 [compound 13]		decreased potency	
O=[N+]([O-])c1cc(CN2CCSCC2)c(O)c2ncccc12 [compound 14]		decreased potency	
CN1CCN(Cc2cc([N+](=O)[O-])c3cccnc3c2O)CC1 [compound 15]	potent growth inhibitors; also recorded: inhibition of cell growth; also recorded: nearly complete cell growth inhibition		
Cc1ccc(CSc2nnc(N)[nH]2)cc1 [compound 16]		low micromolar range	
Nc1nnc(SCc2ccc(F)cc2)[nH]1 [compound 17]		low micromolar range	
Nc1nnc(SCc2ccc(Cl)cc2Cl)[nH]1 [compound 18]		low micromolar range	
O=C(O)c1ccc(-c2ccccc2Cl)o1 [compound 22, reference compound]	essentially no ability to inhibit bacterial growth		
O=C(O)c1ccc(-c2cc(Cl)ccc2Cl)o1 [compound 23, reference compound]	essentially no ability to inhibit bacterial growth		
O=C(O)c1cc(Br)ccc1NS(=O)(=O)c1ccc(Cl)cc1 [compound 25]	nor the sulfonamide (24 and 25) derivatives demonstrated significant growth inhibition		
